Like-named read-outs stand apart in the source and are kept apart here.
Biological target: T1, human GluN1/GluN2B NMDA receptors (Homo sapiens, UniProt Q13224)
T1 construct: expressed in transfected cells
Assay: Cell-based calcium flux (FLIPR) assay on cloned human NR1/NR2B ion channels expressed in mammalian cells (standard and HTS buffer variants);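 also: stable Tet-On inducible cell line, Ca2+ influx triggered by glutamate at about EC40 plus 10 µM glycine, fluorescent dye read-out over 5 min, normalized to control wells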

[1] = standard assay buffer (0.5 mM MgCl2 dye loading; 137 mM NaCl, 4 mM KCl assay buffer), human GluN1/GluN2B cells, read-out: NR2B IC50 (μM) standard assay
[2] = standard assay buffer (0.5 mM MgCl2 in dye loading buffer; 137 mM NaCl, 4 mM KCl in assay buffer), human GluN1/GluN2B, read-out: NR2B IC50 (μM) standard assay
[3] = HTS assay buffer (1.5 mM MgCl2 in dye loading buffer; 150 mM NaCl, 3 mM KCl in assay buffer), human GluN1/GluN2B, read-out: NR2B IC50 (μM) HTS assay

T1 sequence (Q13224 27-1484, other chains not shown): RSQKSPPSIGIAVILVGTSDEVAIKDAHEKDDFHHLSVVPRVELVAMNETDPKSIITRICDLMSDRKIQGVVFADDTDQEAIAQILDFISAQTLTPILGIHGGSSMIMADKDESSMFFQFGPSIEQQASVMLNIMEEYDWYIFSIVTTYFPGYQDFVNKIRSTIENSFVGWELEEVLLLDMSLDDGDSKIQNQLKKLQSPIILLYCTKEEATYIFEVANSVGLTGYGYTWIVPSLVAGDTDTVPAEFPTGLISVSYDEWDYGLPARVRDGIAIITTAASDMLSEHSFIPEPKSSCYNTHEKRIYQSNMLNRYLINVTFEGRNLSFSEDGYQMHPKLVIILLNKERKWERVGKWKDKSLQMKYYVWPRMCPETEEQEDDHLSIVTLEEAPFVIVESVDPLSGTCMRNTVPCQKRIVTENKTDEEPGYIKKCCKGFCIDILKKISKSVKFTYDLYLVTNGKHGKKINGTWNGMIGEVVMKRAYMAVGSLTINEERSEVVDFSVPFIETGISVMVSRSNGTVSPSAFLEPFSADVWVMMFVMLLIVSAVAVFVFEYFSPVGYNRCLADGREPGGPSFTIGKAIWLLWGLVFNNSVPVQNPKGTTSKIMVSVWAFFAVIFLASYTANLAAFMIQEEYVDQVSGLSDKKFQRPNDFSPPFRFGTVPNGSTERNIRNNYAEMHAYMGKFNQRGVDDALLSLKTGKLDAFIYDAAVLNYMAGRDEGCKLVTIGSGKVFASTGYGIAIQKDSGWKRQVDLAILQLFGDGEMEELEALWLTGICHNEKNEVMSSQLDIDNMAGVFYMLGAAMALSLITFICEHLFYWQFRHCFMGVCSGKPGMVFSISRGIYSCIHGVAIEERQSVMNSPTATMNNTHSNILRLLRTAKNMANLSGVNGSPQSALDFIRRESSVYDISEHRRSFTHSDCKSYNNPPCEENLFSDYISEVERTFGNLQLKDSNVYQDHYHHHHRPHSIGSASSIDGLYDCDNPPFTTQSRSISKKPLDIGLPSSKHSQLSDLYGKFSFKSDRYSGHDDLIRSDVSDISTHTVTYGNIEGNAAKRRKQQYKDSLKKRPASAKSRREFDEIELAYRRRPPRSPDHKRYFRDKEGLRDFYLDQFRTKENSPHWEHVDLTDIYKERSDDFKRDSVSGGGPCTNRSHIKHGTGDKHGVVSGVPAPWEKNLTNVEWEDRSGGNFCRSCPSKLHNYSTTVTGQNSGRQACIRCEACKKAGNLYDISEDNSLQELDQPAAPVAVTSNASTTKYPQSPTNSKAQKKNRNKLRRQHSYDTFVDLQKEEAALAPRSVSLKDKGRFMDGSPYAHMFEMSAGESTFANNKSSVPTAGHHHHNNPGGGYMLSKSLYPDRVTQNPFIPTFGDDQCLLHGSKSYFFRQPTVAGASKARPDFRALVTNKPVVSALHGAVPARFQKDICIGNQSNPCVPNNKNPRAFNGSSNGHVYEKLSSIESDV

Row | IC50 [1] [µM] | IC50 [2] [µM] | SMILES | also measured
1 | 0.208 | – | Cn1cc(Cn2c(=O)[nH]c3ncc(-c4ccc(F)cc4)cc32)nn1 [Example 142, 6-(4-Fluorophenyl)-1-[(1-methyltriazol-4-yl)methyl]-3H-imidazo[4,5-b]pyridin-2-one] | –
2 | 0.007 | – | O=C(Cn1c(=O)[nH]c2ncc(-c3cccc(C(F)(F)F)c3)cc21)NC1CC(F)(F)C1 [Example 195, N-(3,3-Difluorocyclobutyl)-2-[2-oxo-6-[3-(trifluoromethyl)phenyl]-3H-imidazo[4,5-b]pyridin-1-yl]acetamide] | –
3 | – | 0.225 | Cn1c(=O)n(Cc2cncc(F)c2)c2cc(-c3cccc(F)c3F)cnc21 [Example 346, 6-(2,3-Difluorophenyl)-1-[(5-fluoro-3-pyridyl)methyl]-3-methyl-imidazo[4,5-b]pyridin-2-one] | –
4 | > 10 | – | O=c1[nH]c2ncc(-c3cccc(C(F)(F)F)c3)cc2n1Cc1ccc(C(F)(F)F)cc1 [Example 219, 6-[3-(Trifluoromethyl)phenyl]-1-[[4-(trifluoromethyl)phenyl]methyl]-3H-imidazo[4,5-b]pyridin-2-one] | –
5 | – | 0.017 | Cc1c(F)ccc(-c2cnc3c(c2)n(CC(=O)N2CC(F)C2)c(=O)n3C)c1F [Example 400, 6-(2,4-Difluoro-3-methyl-phenyl)-1-[2-(3-fluoroazetidin-1-yl)-2-oxo-ethyl]-3-methyl-imidazo[4,5-b]pyridin-2-one] | –
6 | 0.8 | – | O=c1[nH]c2ncc(-c3cccc(C(F)(F)F)c3)cc2n1CC1(F)COC1 [Example 226, 1-[(3-Fluorooxetan-3-yl)methyl]-6-[3-(trifluoromethyl)phenyl]-3H-imidazo[4,5-b]pyridin-2-one] | –
7 | > 5 | – | O=c1[nH]c2ncc(-c3cccc(C(F)(F)F)c3)cc2n1Cc1nn[nH]n1 [Example 236, 1-(2H-Tetrazol-5-ylmethyl)-6-[3-(trifluoromethyl)phenyl]-3H-imidazo[4,5-b]pyridin-2-one] | –
8 | 0.087 | – | Cn1c(=O)n(CC(=O)N2CCC2)c2cc(-c3csc(C(F)(F)F)n3)cnc21 [Example 107, 1-[2-(Azetidin-1-yl)-2-oxo-ethyl]-3-methyl-6-[2-(trifluoromethyl)thiazol-4-yl]imidazo[4,5-b]pyridin-2-one] | –
9 | – | 0.219 | CNC(=O)Cn1c(=O)[nH]c2ncc(-c3ccc(F)cc3C)cc21 [Example 437, 2-[6-(4-Fluoro-2-methyl-phenyl)-2-oxo-3H-imidazo[4,5-b]pyridin-1-yl]-N-methyl-acetamide] | –
10 | – | 0.962 | NC(=O)Cn1c(=O)[nH]c2ncc(-c3cccc(C(F)(F)F)c3)cc21 [Example 432, 2-[2-Oxo-6-[3-(trifluoromethyl)phenyl]-3H-imidazo[4,5-b]pyridin-1-yl]acetamide] | –
11 | 0.06 | – | O=c1[nH]c2ncc(-c3ccc(F)c(F)c3)cc2n1Cc1cccnc1 [Example 292, 6-(3,4-Difluorophenyl)-1-(3-pyridylmethyl)-3H-imidazo[4,5-b]pyridin-2-one] | –
12 | – | 0.273 | CCC(=O)Cn1c(=O)[nH]c2ncc(-c3cccc(F)n3)cc21 [Example 537, 6-(6-Fluoro-2-pyridyl)-1-(2-oxobutyl)-3H-imidazo[4,5-b]pyridin-2-one] | –
13 | 0.075 | – | Cc1noc(Cn2c(=O)[nH]c3ncc(-c4ccc(F)c(F)c4)cc32)n1 [Example 143, 6-(3,4-Difluorophenyl)-1-[(3-methyl-1,2,4-oxadiazol-5-yl)methyl]-3H-imidazo[4,5-b]pyridin-2-one] | –
14 | 0.453 | – | O=C(Cn1c(=O)[nH]c2ncc(-c3cccc(C(F)(F)F)c3)cc21)N1CC2(CNC2)C1 [Example 207, 1-[2-(2,6-Diazaspiro[3.3]heptan-6-yl)-2-oxo-ethyl]-6-[3-(trifluoromethyl)phenyl]-3H-imidazo[4,5-b]pyridin-2-one] | –
15 | – | – | COc1cccc(-c2cnc3[nH]c(=O)n(CC(=O)NC4CC4)c3c2)c1 [Example 450, N-Cyclopropyl-2-[6-(3-methoxyphenyl)-2-oxo-3H-imidazo[4,5-b]pyridin-1-yl]acetamide] | IC50 [3]: 1.76 µM
16 | 0.057 | – | Cc1cc(Cn2c(=O)n(C)c3ncc(-c4cccc(C(F)(F)F)c4)cc32)no1 [Example 74, 3-Methyl-1-[(5-methylisoxazol-3-yl)methyl]-6-[3-(trifluoromethyl)phenyl]imidazo[4,5-b]pyridin-2-one] | –
17 | 1.31 | – | COCc1noc(Cn2c(=O)[nH]c3ncc(-c4ccc(F)c(F)c4)cc32)n1 [Example 145, 6-(3,4-Difluorophenyl)-1-[[3-(methoxymethyl)-1,2,4-oxadiazol-5-yl]methyl]-3H-imidazo[4,5-b]pyridin-2-one] | –
18 | 2.74 | – | COc1ccc(-c2cnc3[nH]c(=O)n(CC(=O)N4CCOCC4)c3c2)cc1 [Example 1, 6-(4-Methoxyphenyl)-1-(2-morpholino-2-oxo-ethyl)-3H-imidazo[4,5-b]pyridin-2-one] | –
19 | – | – | COc1cc(Cn2c(=O)[nH]c3ncc(-c4c(F)cccc4OC)cc32)cc(OC)c1 [Example 509, 1-[(3,5-Dimethoxyphenyl)methyl]-6-(2-fluoro-6-methoxy-phenyl)-3H-imidazo[4,5-b]pyridin-2-one] | IC50 [3]: 0.884 µM

Row | IC50 [1] [µM] | IC50 [2] [µM] | SMILES | also measured
20 | – | 0.023 | Cc1cc(-c2cnc3c(c2)n(CC(=O)N(C)C)c(=O)n3C)sc1Cl [Example 322, 2-[6-(5-Chloro-4-methyl-2-thienyl)-3-methyl-2-oxo-imidazo[4,5-b]pyridin-1-yl]-N,N-dimethyl-acetamide] | –
21 | 0.915 | – | Cn1c(=O)n(CC(=O)N2CC(F)C2)c2cc(-c3ccc(CO)s3)cnc21 [Example 90, 1-[2-(3-Fluoroazetidin-1-yl)-2-oxo-ethyl]-6-[5-(hydroxymethyl)-2-thienyl]-3-methyl-imidazo[4,5-b]pyridin-2-one] | –
22 | – | – | COc1ccc(-c2cnc3[nH]c(=O)n(CC(=O)NC4CC4)c3c2)cc1C [Example 451, N-Cyclopropyl-2-[6-(4-methoxy-3-methyl-phenyl)-2-oxo-3H-imidazo[4,5-b]pyridin-1-yl]acetamide] | IC50 [3]: 1.03 µM
23 | > 10 | – | Cc1cccnc1Cn1c(=O)[nH]c2ncc(-c3ccc(F)c(F)c3)cc21 [Example 284, 6-(3,4-Difluorophenyl)-1-[(3-methyl-2-pyridyl)methyl]-3H-imidazo[4,5-b]pyridin-2-one] | –
24 | 0.013 | – | O=c1[nH]c2ncc(-c3cccc(Cl)c3)cc2n1Cc1cncc(F)c1 [Example 305, 6-(3-Chlorophenyl)-1-[(5-fluoro-3-pyridyl)methyl]-3H-imidazo[4,5-b]pyridin-2-one] | –
25 | – | 0.336 | CCOc1ccc(F)cc1-c1cnc2[nH]c(=O)n(CC(=O)NC3CC3)c2c1 [Example 607, N-Cyclopropyl-2-[6-(2-ethoxy-5-fluoro-phenyl)-2-oxo-3H-imidazo[4,5-b]pyridin-1-yl]acetamide] | –
26 | 0.82 | – | Cn1c(=O)n(CC(=O)N2CCC2)c2cc(-c3cnc(C(F)(F)F)s3)cnc21 [Example 115, 1-[2-(Azetidin-1-yl)-2-oxo-ethyl]-3-methyl-6-[2-(trifluoromethyl)thiazol-5-yl]imidazo[4,5-b]pyridin-2-one] | –
27 | – | 0.374 | Cn1cc(Cn2c(=O)n(C)c3ncc(-c4ccc(C(F)(F)F)s4)cc32)cn1 [Example 565, 3-Methyl-1-[(1-methylpyrazol-4-yl)methyl]-6-[5-(trifluoromethyl)-2-thienyl]imidazo[4,5-b]pyridin-2-one] | –
28 | – | 1.03 | Cn1c(=O)n(Cc2cccnc2)c2cc(-c3cc(F)cc(F)c3)cnc21 [Example 354, 6-(3,5-Difluorophenyl)-3-methyl-1-(3-pyridylmethyl)imidazo[4,5-b]pyridin-2-one] | –
29 | – | 3.57 | Cc1cc(C)cc(-c2cnc3[nH]c(=O)n(CC4CC4)c3c2)c1 [Example 474, 1-(Cyclopropylmethyl)-6-(3,5-dimethylphenyl)-3H-imidazo[4,5-b]pyridin-2-one] | –
30 | – | 0.016 | Cn1c(=O)n(Cc2cccnn2)c2cc(-c3ccc(F)c(OC(F)F)c3)cnc21 [Example 542, 6-[3-(Difluoromethoxy)-4-fluoro-phenyl]-3-methyl-1-(pyridazin-3-ylmethyl)imidazo[4,5-b]pyridin-2-one] | –
31 | 0.159 | – | CCOC(=O)Cn1c(=O)n(C)c2ncc(-c3cccc(C(F)(F)F)c3)cc21 [Example 136, Ethyl 2-[3-methyl-2-oxo-6-[3-(trifluoromethyl)phenyl]imidazo[4,5-b]pyridin-1-yl]acetate] | –
32 | – | 0.023 | Cn1c(=O)n(CC(=O)N2CCC2)c2cc(-c3ccc(F)c(OC(F)F)c3)cnc21 [Example 588, 1-[2-(Azetidin-1-yl)-2-oxo-ethyl]-6-[3-(difluoromethoxy)-4-fluoro-phenyl]-3-methyl-imidazo[4,5-b]pyridin-2-one] | –
33 | 0.824 | – | Cc1nccc(Cn2c(=O)[nH]c3ncc(-c4cccc(C(F)(F)F)c4)cc32)n1 [Example 254, 1-[(2-Methylpyrimidin-4-yl)methyl]-6-[3-(trifluoromethyl)phenyl]-3H-imidazo[4,5-b]pyridin-2-one] | –
34 | – | 0.036 | CCC(=O)Cn1c(=O)[nH]c2ncc(-c3cccc(C)c3)cc21 [Example 332, 6-(m-Tolyl)-1-(2-oxobutyl)-3H-imidazo[4,5-b]pyridin-2-one] | –
35 | 0.088 | – | Cc1cncc(Cn2c(=O)[nH]c3ncc(-c4cccc(F)c4F)cc32)c1 [Example 310, 6-(2,3-Difluorophenyl)-1-[(5-methyl-3-pyridyl)methyl]-3H-imidazo[4,5-b]pyridin-2-one] | –
36 | – | 0.324 | CCC(=O)Cn1c(=O)n(C)c2ncc(-c3cccc(C4CC4)c3)cc21 [Example 392, 6-(3-Cyclopropylphenyl)-3-methyl-1-(2-oxobutyl)imidazo[4,5-b]pyridin-2-one] | –
37 | – | 0.016 | Cc1cc(-c2cnc3c(c2)n(CC(=O)N2CC(F)C2)c(=O)n3C)ccc1F [Example 401, 1-[2-(3-Fluoroazetidin-1-yl)-2-oxo-ethyl]-6-(4-fluoro-3-methyl-phenyl)-3-methyl-imidazo[4,5-b]pyridin-2-one] | –
38 | – | 0.034 | Cc1c(F)ccc(-c2cnc3c(c2)n(Cc2cccnc2)c(=O)n3C)c1F [Example 339, 6-(2,4-Difluoro-3-methyl-phenyl)-3-methyl-1-(3-pyridylmethyl)imidazo[4,5-b]pyridin-2-one] | –

Source: patent US11759455B2, “Substituted 1H-imidazo[4,5-b]pyridin-2(3H)-ones and their use as GLUN2B receptor modulators” (JANSSEN PHARMACEUTICA NV, priority 2016, dated 2023)
